# Test results taken from patent US7485619B2, “Antimicrobial agent” (priority 2005, dated 2009).
# Where two headings read alike, the source gives them in different places. No end group written: not given here.
# How the values were obtained:
# [1] = system: methicillin-resistant Staphylococcus aureus (ATCC 700698); format: cell-based
# Experimental: (§1) E. coli (ATCC 20922) (5×10^5 cells) in 100 μL of 10 mM Phosphate Buffer, pH 7.0 containing mucocidin peptide concentration of 5, 10, 15, 20, or 50 μM was incubated for an hour. Then, it was diluted 200 fold with the same buffer and 300 μL aliquots (approx. 750 cells) were plated on 150 mm LB plate and grown overnight at 37° C. The grown colonies were counted. The cell viability was estimated by the percent of colony forming units. Staphylococcus aureus (ATCC 25923) and methicillin resistant Staphylococcus aureus (MRSA) (ATCC 700698) were incubated with mucocidin concentration up to 5 μM. Candida albicans (ATCC 10231) were incubated with mucocidin concentration levels up to 50 μM^44.
# [2] = system: Staphylococcus aureus (ATCC 25923); format: cell-based; conditions: for bactericidal activity (in words): Table 1
# Experimental: (§2) FIGS. 2A-2C show antimicrobial activity of mucocidin. (A) The growth rate of E. coli (0.5×10^3) containing pBluescript SK plasmid with mucocidin cDNA insert and the control E. coli containing plasmid alone in 20 ml LB broth cultured for 5 days. Cell growth was monitored by Absorbance at 600 nm (A600). Induction of vector expression by 20 μL isopropyl-B-D-thiogalactopyranoside (IPTG 1 mM) is on the bottom line. Each point represents average of five experiments. (B) Bactericidal activity of synthetic mucocidin peptide was measured by the percent colony formation units of E. coli and Staphylococcus aureus. Cells (5×10^5) were cultured in 100 μL in IB broth containing 0, 5, 10, 20 μM concentration of mucocidin. After one hour, cell viability was determined by plating 300 μL aliquots of the 200 fold diluted cultured cell broth on LBA or TSA plates, respectively. […] (C) Scanning electron micrographs of E. coli, Staphylococcus aureus and Candida albicans incubated with 10, […] mucocidin, respectively for 10, 20 and 30 min, and they were immediately fixed with glutaraldehyde, dried on the Millipore membrane, and coated with gold. […] All photographs were taken at the same magnification. Scale bar, 1 μm.
# as §1
# Bactericidal activity of various deletion peptides of mucocidin (PeptRon, Korea) was compared with the activity of Magainin II (23 mer) peptide (Table 1). […] Also first 15 residue peptide likely functions as propeptide and native peptide will likely have 31 residues.
# [3] = system: Aspergellous niger (ATCC #16404); experiment: USP Antimicrobial Test; format: cell-based; conditions: three log dilution
# Source text: (§3) The mucocidin (Microtest Laboratories Test sample #05-03383) met the requirement of the USP Validation of Microbial Recovery.
# [4] = system: Candida albicans (ATCC #10231); experiment: USP Antimicrobial Test; format: cell-based; conditions: three log dilution
# Source text: as §3
# E. coli (ATCC #8739) = experiment: USP Antimicrobial Test; format: cell-based; conditions: three log dilution
# Source text: as §3
# [5] = system: P. aeruginosa (ATCC #9027); experiment: USP Antimicrobial Test; format: cell-based; conditions: three log dilution
# Source text: as §3
# S. aureus (ATCC #6538) = experiment: USP Antimicrobial Test; format: cell-based; conditions: three log dilution
# Source text: as §3
# E. coli (ATCC25922) = format: cell-based; conditions: for decrease of colony forming unit (CFU) percentages: one hour incubation
# Experimental: as §2, §1
# [6] = system: Candida albicans (ATCC 10231); format: cell-based
# Experimental: as §1
# Candida albicans = experiment: Scanning electron micrography of microbes treated with mucocidin; format: cell-based; conditions: 100 μM mucocidin; 10, 20 and 30 min
# Experimental: as §2
# (§4) Scanning Electron Micrographs were taken of E. coli, Staphylococcus aureus and Candida albicans incubated with 10, 40, 100 μM mucocidin, respectively for 10, 20 and 30 min, and they were immediately fixed with glutaraldehyde, dried on Millipore membrane, and coated with gold. […] All photographs were taken at the same magnification.
# (§5) The primary growth of E. coli containing the mucocidin peptide was inhibited in a dose-dependent manner (FIG. 2B). […] To explore a possible mechanism of mucocidin elicited bactericidal activity, the progress of morphological alteration of microbes upon the treatment of mucocidin was determined by scanning electron Microscopy. E. coli, Staphylococcus aureus and Candida albicans (FIG. 2C) incubated with 10, 40, 100 μM mucocidin, respectively for various time periods, were immediately fixed, dried, and coated with gold. […]
# E. coli [7] = experiment: as above; format: cell-based; conditions: 10 μM mucocidin; 10, 20 and 30 min
# Experimental: as §2, §4, §5
# Staphylococcus aureus = experiment: as above; format: cell-based; conditions: 40 μM mucocidin; 10, 20 and 30 min
# Experimental: as §2, §4, §5
# [8] = target: T1, guinea pig liver transglutaminase (UniProt P08587); experiment: Mucocidin as transglutaminase substrate, monodansylcadaverine incorporation; format: biochemical; conditions: 50 μM mucocidin, 10 μM MDC; 20, 40, 60, 120 min; with or without Ca++
# T1 construct: using guinea pig liver transglutaminase (Sigma, St. Luois, Mo.); purchased Sigma; host or cells: guinea pig liver
# Experimental: Mucocidin as a transglutaminase substrate was carried out by a slightly modified method of previously described^27 using guinea pig liver transglutaminase (Sigma, St. Luois, Mo.). Transglutaminase assay was carried out by adding 10 μl of enzyme (10 μg) into 90 μL of reaction mixture containing 0.05 M tris acetate buffer, pH 8.0,1 mM EDTA, 5 mM dithiothreitol, 10 mM CaCl2, 0.2% lubrol, and 10 μM of monodansylcadaverine (MDC)(Sigma) and mucocidin (50 μM). Ten μL aliquot of the reaction mixture was removed at 20, 40, 60 and 120 min and added into 500 μL volume of 1 mM EDTA solution to halt the enzyme reaction. Unreacted MDC in solution was extracted with n-hexane. The reacted mucocidin in aqueous solution was blotted on a cellulose nitrate membrane in a slot filtering apparatus (Bio Rad Lab) and washed once with 0.5 mL of water. Relative fluorescence was indicated as a measure of MDC incorporated mucocidin. The aliquots taken from each sample was analyzed on SDS-PAGE.
# These immunological staining of the mucosal epithelium indicate that mucocidin is expressed in the outer layers of epithelium and the secreted peptide remains bound to the epithelial surface. […]
# E. coli [9] = experiment: Antimicrobial activity of isolated native salivary mucocidin; format: cell-based; conditions: data not shown
# [10] = Bacteriocidal activity of salivary mucocidin fractions; format: cell-based; conditions: both Superose 12 peak fractions
# Experimental: Thirty milliliters of parotid saliva from each volunteer was collected into the tube containing 1.0 ml of 0.25 M citrate buffer, pH 4.0 containing 0.02% NaN3. The 10 ml acidified saliva was adsorbed into SP-Sepharose column (2.4×6 ml) equilibrated with 0.025 M citrate buffer pH 4.0, the column was washed with 3 fold column volume each of the equilibrating buffer and the 0.05 M tris-acetate buffer pH 6.0 containing 1 mM EDTA. The mucocidin was eluted with the 0.05 M tris-acetate buffer, pH 6.0 containing 0.15 M NaCl. The eluted mucocidin containing fractions assayed by immunodot blot analysis were pooled and concentrated in Speed-vac centrifuge evaporation apparatus. Pooled mucocidin fractions were applied to Superose 12 column equilibrated with 0.02 M tris-acetate buffer pH 6.0. Two of the mucocidin peaks were detected first at 8 kDa molecular weight marker and next far beyond the column volume.
# T1 sequence (P08587 whole entry): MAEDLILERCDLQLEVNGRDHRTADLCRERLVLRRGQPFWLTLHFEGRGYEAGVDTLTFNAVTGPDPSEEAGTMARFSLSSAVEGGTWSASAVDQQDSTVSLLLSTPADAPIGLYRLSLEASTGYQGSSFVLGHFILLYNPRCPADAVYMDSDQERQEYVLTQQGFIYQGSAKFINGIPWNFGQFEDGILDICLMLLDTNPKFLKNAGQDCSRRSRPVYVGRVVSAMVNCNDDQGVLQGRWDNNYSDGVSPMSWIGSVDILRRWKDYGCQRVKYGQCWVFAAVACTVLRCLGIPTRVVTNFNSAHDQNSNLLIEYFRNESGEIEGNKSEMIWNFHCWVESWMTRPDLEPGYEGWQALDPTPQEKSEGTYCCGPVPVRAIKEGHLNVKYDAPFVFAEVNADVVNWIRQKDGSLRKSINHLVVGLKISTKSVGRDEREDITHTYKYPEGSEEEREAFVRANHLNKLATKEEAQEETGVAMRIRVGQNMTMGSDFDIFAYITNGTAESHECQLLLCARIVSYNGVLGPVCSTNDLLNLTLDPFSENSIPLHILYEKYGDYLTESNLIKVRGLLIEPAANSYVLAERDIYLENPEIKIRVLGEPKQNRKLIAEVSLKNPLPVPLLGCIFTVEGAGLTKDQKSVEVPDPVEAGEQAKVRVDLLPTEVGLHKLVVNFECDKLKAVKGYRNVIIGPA
compound,measurement,setting,value
"CC1(C)S[C@@H]2[C@H](NC(=O)[C@H](N)c3ccccc3)C(=O)N2[C@H]1C(=O)O [ampicillin, reference compound]",sensitivity of methicillin-resistant Staphylococcus aureus (in words),[1],insensitive
ATSSVSSRVLNRSLQVKVVKITN [Peptide 23-mer-C],"S. aureus (MBC, μM)",[2]; ATCC 25923,>10.0 µM
same,growth of the organism,[3],almost no growth
same,growth of the organism,[4],almost no growth
same,growth of the organism,E. coli (ATCC #8739),almost no growth
same,growth of the organism,[5],almost no growth
same,growth of the organism,S. aureus (ATCC #6538),almost no growth
EYIYNSACSVLSATSSVSSRVLNRSLQVKVVKITN [Peptide 35-mer],"S. aureus (MBC, μM)",[2]; ATCC 25923,>50.0 µM
"GIGKFLHSAKKFGKAFVGEIMNS [Magainin II, reference compound]","S. aureus (MBC, μM)","[2]; Table 1, deletion peptides",>3.0 µM
MHDFWVLWVLLEYIYNSACSVLSATSSVSSRVLNRSLQVKVVKITN [Peptide 46-mer],decrease of colony forming unit (CFU) percentages,E. coli (ATCC25922); 5 μM mucocidin,20%
same,decrease of colony forming unit (CFU) percentages,E. coli (ATCC25922); 10 μM mucocidin,40%
same,decrease of colony forming unit (CFU) percentages,E. coli (ATCC25922); 15 μM mucocidin,50%
same,decrease of colony forming unit (CFU) percentages,E. coli (ATCC25922); 20 μM mucocidin,60%
same,minimal bactericidal concentration (MBC),E. coli (ATCC25922); ATCC25922,40 ± 7.3 µM
same,"S. aureus (MBC, μM)",[2]; ATCC 25923,>70.0 µM
same,minimal bactericidal concentration (MBC),[2]; ATCC 25923,3 ± 0.5 µM
same,sensitivity of primary growth of Staphylococcus aureus relative to E. coli,[2]; S. aureus versus E. coli,ten fold more sensitive
same,bactericidal activity (in words),[2],good bactericidal activity
same,minimal bactericidal concentration (MBC),[6],80 ± 13.5 µM
same,minimal bactericidal concentration (MBC),[1],50 ± 10.9 µM
same,sensitivity of methicillin-resistant Staphylococcus aureus (in words),[1],very sensitive to low concentrations
same,morphology of the microbe by SEM,Candida albicans,loss and shrinkage of original cell shapes
same,morphology of the microbe by SEM,E. coli [7],loss and shrinkage of original cell shapes
same,morphology of the microbe by SEM,Staphylococcus aureus,loss and shrinkage of original cell shapes
same,time-dependent uptake of MDC into mucocidin,[8],detected only in the presence of Ca^++
"M^1HDFWVLWVLLEYIYNSACSVLS^23 (MHDFWVLWVLLEYIYNSACSVLS; listed as Homo sapiens) [Peptide 23-mer-N, mucocidin residues 1-23]",bactericidal activity (in words),[2],no activity
"SRVLNRSLQVKVVKITN [Peptide 17-mer, SRVLNRSLQVKVVKITN]","S. aureus (MBC, μM)",[2]; ATCC 25923,>5.0 µM
SSVSSRVLNRSLQVKVVKITN [Peptide 21-mer],"S. aureus (MBC, μM)",[2]; ATCC 25923,>3.5 µM
"VLNRSLQVKVVKITN [Peptide 15-mer, VLNRSLQVKVVKITN]","S. aureus (MBC, μM)",[2]; ATCC 25923,>20.0 µM
"VSSRVLNRSLQVKVVKITN [Peptide 19-mer, VSSRVLNRSLQVKVVKITN]","S. aureus (MBC, μM)",[2]; ATCC 25923,>3.5 µM
"isolated native salivary mucocidin: glycosylated native mucocidin isolated from human parotid saliva by ion exchange and Superose 12 chromatography (MHDFWVLWVLLEYIYNSACSVLSATSSVSSRVLNRSLQVKVVKITN; also: glycosylated, sites not given here)",antimicrobial activity against E. coli,E. coli [9],retained antimicrobial activity
same,bacteriocidal activity,[10],bacteriocidal activity similar to mucocidin peptides
